Laboratory results reported in patent publication US8952024B2, “Herbicidal pyrimidone derivatives” (E I du Pont de Nemours and Company, priority 2009, dated 2015).

What was measured:
Assay in all cases: Test B pre-/postemergence plant response
Type in all cases: in vivo
[1] = tested on: ragweed (common ragweed, Ambrosia elatior)
In short: (§1)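 Compound in solvent + surfactant applied pre-em (loam/sand) or post-em (plants 2–18 cm, peat medium); greenhouse hold 13–15 days; visual 0–100 control score.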

[2] = tested on: blackgrass (Alopecurus myosuroides)
In short: as §1

[3] = tested on: giant foxtail (Setaria faberii)
In short: as §1

[4] = tested on: velvetleaf (Abutilon theophrasti)
In short: as §1

[5] = tested on: goosegrass (Eleusine indica)
In short: as §1

[6] = tested on: bermudagrass (Cynodon dactylon)
In short: as §1

[7] = tested on: yellow nutsedge (Cyperus esculentus)
In short: as §1

[8] = tested on: corn (Zea mays)
In short: as §1

[9] = tested on: downy bromegrass (Bromus tectorum)
In short: as §1

[10] = tested on: Surinam grass (Brachiaria decumbens)
In short: as §1

[11] = tested on: green foxtail (Setaria viridis)
In short: as §1

[12] = tested on: woolly cupgrass (Eriochloa villosa)
In short: as §1

[13] = tested on: kochia (Kochia scoparia); conditions: Postemergence; for Plant response rating, Kochia: scale 0 (no effect) to 100 (complete control)
In short: as §1

[14] = tested on: large crabgrass (Digitaria sanguinalis)
In short: as §1

[15] = tested on: johnsongrass (Sorghum halepense)
In short: as §1

[16] = tested on: Italian ryegrass (Lolium multiflorum)
In short: as §1

[17] = tested on: lambsquarters (Chenopodium album)
In short: as §1

[18] = 250 g ai/ha, Preemergence, 0 to 100 scale
[19] = Postemergence, 62 g ai/ha, scale 0 (no effect) to 100 (complete control), 13 to 15 days
[20] = Postemergence, 125 g ai/ha, visual rating after 13 to 15 days, scale 0 (no effect) to 100 (complete control)
[21] = Preemergence, 31 g ai/ha, scale 0 to 100 (0 no effect, 100 complete control)
[22] = Preemergence, 125 g ai/ha, 0 to 100 scale
[23] = Postemergence, 31 g ai/ha, scale 0 to 100 (0 no effect, 100 complete control)
[24] = Postemergence, 250 g ai/ha, scale 0 to 100
[25] = Preemergence, 62 g ai/ha, scale 0 to 100, 0 no effect, 100 complete control

Structure (SMILES): Cc1cc(F)ccc1-n1c(-c2ccccc2)ncc(C(=O)C2=C(O)CCCC2=O)c1=O [Compound 48]
- Plant response rating, Ragweed [1, 18]: 95
- Plant response rating, Ragweed [1, 19]: 85
- Plant response rating, Ragweed [1, 20]: 90
- Plant response rating, Ragweed [1, 21]: 65
- Ragweed plant response rating [1, 22]: 90
- Plant response rating, Blackgrass [2, 18]: 5
- Plant response rating, Blackgrass [2, 23]: 0
- Plant response rating, Blackgrass [2, 19]: 5
- Plant response rating, Blackgrass [2, 20]: 20
- Blackgrass plant response rating [2, 24]: 30
- Plant response rating, Blackgrass [2, 21]: 0
- Plant response rating, Blackgrass [2, 25]: 0
- Blackgrass plant response rating [2, 22]: 0
- Plant response rating, Foxtail, Giant [3, 18]: 98
- Plant response rating, Foxtail, Giant [3, 23]: 85
- Plant response rating, Foxtail, Giant [3, 19]: 85
- Plant response rating, Foxtail, Giant [3, 20]: 95
- Foxtail, Giant plant response rating [3, 24]: 98
- Plant response rating, Foxtail, Giant [3, 21]: 20
- Plant response rating, Foxtail, Giant [3, 25]: 75
- Foxtail, Giant plant response rating [3, 22]: 85
- Plant response rating, Velvetleaf [4, 18]: 100
- Plant response rating, Velvetleaf [4, 19]: 85
- Plant response rating, Velvetleaf [4, 20]: 98
- Plant response rating, Velvetleaf [4, 21]: 75
- Velvetleaf plant response rating [4, 22]: 100
- Plant response rating, Goosegrass [5, 18]: 100
- Plant response rating, Goosegrass [5, 19]: 85
- Plant response rating, Goosegrass [5, 20]: 95
- Goosegrass plant response rating [5, 24]: 98
- Plant response rating, Goosegrass [5, 21]: 98
- Goosegrass plant response rating [5, 22]: 100
- Plant response rating, Bermudagrass [6, 18]: 100
- Plant response rating, Bermudagrass [6, 23]: 85
- Plant response rating, Bermudagrass [6, 19]: 95
- Plant response rating, Bermudagrass [6, 20]: 98
- Bermudagrass plant response rating [6, 24]: 100
- Plant response rating, Bermudagrass [6, 21]: 100
- Plant response rating, Bermudagrass [6, 25]: 100
- Bermudagrass plant response rating [6, 22]: 100
- Plant response rating, Nutsedge, Yellow [7, 18]: 90
- Plant response rating, Nutsedge, Yellow [7, 19]: 45
- Plant response rating, Nutsedge, Yellow [7, 20]: 60
- Plant response rating, Nutsedge, Yellow [7, 21]: 20
- Nutsedge, Yellow plant response rating [7, 22]: 85
- Plant response rating, Corn [8, 18]: 0
- Plant response rating, Corn [8, 23]: 65
- Plant response rating, Corn [8, 19]: 70
- Plant response rating, Corn [8, 20]: 85
- Corn plant response rating [8, 24]: 85
- Plant response rating, Corn [8, 21]: 0
- Plant response rating, Corn [8, 25]: 0
- Corn plant response rating [8, 22]: 0
- Plant response rating, Bromegrass, Downy [9, 18]: 45
- Plant response rating, Bromegrass, Downy [9, 23]: 10
- Plant response rating, Bromegrass, Downy [9, 19]: 25
- Plant response rating, Bromegrass, Downy [9, 20]: 50
- Bromegrass, Downy plant response rating [9, 24]: 70
- Plant response rating, Bromegrass, Downy [9, 21]: 0
- Plant response rating, Bromegrass, Downy [9, 25]: 0
- Bromegrass, Downy plant response rating [9, 22]: 0
- Plant response rating, Surinam Grass [10, 18]: 100
- Plant response rating, Surinam Grass [10, 19]: 85
- Plant response rating, Surinam Grass [10, 20]: 95
- Plant response rating, Surinam Grass [10, 21]: 80
- Surinam Grass plant response rating [10, 22]: 100
- Plant response rating, Foxtail, Green [11, 18]: 98
- Plant response rating, Foxtail, Green [11, 23]: 85
- Plant response rating, Foxtail, Green [11, 19]: 95
- Plant response rating, Foxtail, Green [11, 20]: 95
- Foxtail, Green plant response rating [11, 24]: 95
- Plant response rating, Foxtail, Green [11, 21]: 60
- Plant response rating, Foxtail, Green [11, 25]: 60
- Foxtail, Green plant response rating [11, 22]: 98
- Plant response rating, Cupgrass, Woolly [12, 18]: 95
- Plant response rating, Cupgrass, Woolly [12, 23]: 80
- Plant response rating, Cupgrass, Woolly [12, 19]: 80
- Plant response rating, Cupgrass, Woolly [12, 20]: 90
- Cupgrass, Woolly plant response rating [12, 24]: 95
- Plant response rating, Cupgrass, Woolly [12, 21]: 10
- Plant response rating, Cupgrass, Woolly [12, 25]: 10
- Cupgrass, Woolly plant response rating [12, 22]: 75
- Plant response rating, Kochia ([13]; 62 g ai/ha, 13 to 15 days): 98
- Plant response rating, Kochia ([13]; 125 g ai/ha, visual rating after 13 to 15 days): 100
- Kochia plant response rating ([13]; 250 g ai/ha, scale 0 to 100): 100
- Plant response rating, Crabgrass, Large [14, 18]: 100
- Plant response rating, Crabgrass, Large [14, 23]: 85
- Plant response rating, Crabgrass, Large [14, 19]: 85
- Plant response rating, Crabgrass, Large [14, 20]: 95
- Crabgrass, Large plant response rating [14, 24]: 95
- Plant response rating, Crabgrass, Large [14, 21]: 75
- Plant response rating, Crabgrass, Large [14, 25]: 90
- Crabgrass, Large plant response rating [14, 22]: 100
- Plant response rating, Johnsongrass [15, 18]: 98
- Plant response rating, Johnsongrass [15, 19]: 80
- Plant response rating, Johnsongrass [15, 20]: 80
- Johnsongrass plant response rating [15, 24]: 95
- Plant response rating, Johnsongrass [15, 21]: 20
- Plant response rating, Johnsongrass [15, 25]: 45
- Johnsongrass plant response rating [15, 22]: 90
- Plant response rating, Ryegrass, Italian [16, 18]: 0
- Plant response rating, Ryegrass, Italian [16, 19]: 5
- Plant response rating, Ryegrass, Italian [16, 20]: 30
- Plant response rating, Ryegrass, Italian [16, 21]: 0
- Ryegrass, Italian plant response rating [16, 22]: 0
- Plant response rating, Lambsquarters [17, 18]: 100
- Plant response rating, Lambsquarters [17, 19]: 95
- Plant response rating, Lambsquarters [17, 20]: 100
- Lambsquarters plant response rating [17, 24]: 100
- Plant response rating, Lambsquarters [17, 21]: 100
- Plant response rating, Lambsquarters [17, 25]: 100
- Lambsquarters plant response rating [17, 22]: 100
